# Reference: article PMC8696196 (RSC Advances, 2021)
# Like-named read-outs stand apart in the source and are kept apart here.
# Experiments:
# N5 (H12N5) neuraminidase = N5 (H12N5) neuraminidase (Influenza A virus, UniProt A1ILL9); test: biochemical
# in vitro = conditions: dog
# [1] = system: H1N1 (A/Puerto Rico/8/34); test: microbe, parasite or virus in culture; format: cell-based, influenza A virus; conditions: read-out: EC50 H1N1
# H3N2 (A/Moscow/10/99) = test: microbe, parasite or virus in culture; format: cell-based, influenza A virus; conditions: read-out: EC50 H3N2
# N2 (H3N2) neuraminidase = N2 (H3N2) neuraminidase (Influenza A virus, UniProt Q8AZ87); test: biochemical
compound,measurement,setting,value
"CCC(CC)O[C@@H]1C=C(C(=O)O)C[C@H](n2nncc2-c2ccc(C(=O)O)cc2)[C@H]1NC(C)=O [Compound 2f, (3R,4R,5S)-4-Acetamido-5-[5-(4-carboxyphenyl)-1H-1,2,3-triazol-1-yl]-3-(pentan-3-yloxy)cyclohex-1-ene-1-carboxylic acid]",IC50,N5 (H12N5) neuraminidase,3.92 ± 0.69 µM
"CCC(CC)O[C@@H]1C=C(C(=O)O)C[C@H](n2cc(COc3ccc(C[C@H](N)C(=O)O)cc3)nn2)[C@H]1NC(C)=O [Compound 1n, (3R,4R,5S)-4-Acetamido-5-{4-{[4-((S)-2-amino-2-carboxyethyl)phenoxy]methyl}-1H-1,2,3-triazol-1-yl}-3-(pentan-3-yloxy)cyclohex-1-ene-1-carboxylic acid]",IC50,N5 (H12N5) neuraminidase,6.95 ± 0.47 µM
"CCC(CC)O[C@@H]1C=C(C(=O)O)C[C@H](n2nncc2-c2cccc(N)c2)[C@H]1NC(C)=O [Compound 2j, (3R,4R,5S)-4-Acetamido-5-[5-(3-aminophenyl)-1H-1,2,3-triazol-1-yl]-3-(pentan-3-yloxy)cyclohex-1-ene-1-carboxylic acid]",CC50,in vitro,> 500 µM
same,IC50,N5 (H12N5) neuraminidase,0.045 ± 0.016 µM
same,EC50,"[1]; Influenza A virus, H1N1, MDCK, 72 h",11.5 ± 2.69 µM
same,EC50,"H3N2 (A/Moscow/10/99); Influenza A virus, H3N2, MDCK, 72 h",7.65 ± 0.7 µM
"CCC(CC)O[C@@H]1C=C(C(=O)O)C[C@H](n2cc(-c3ccc(C)cc3)nn2)[C@H]1NC(C)=O [Compound 1d, (3R,4R,5S)-4-Acetamido-5-[4-(4-methylphenyl)-1H-1,2,3-triazol-1-yl]-3-(pentan-3-yloxy)cyclohex-1-ene-1-carboxylic acid]",IC50,N5 (H12N5) neuraminidase,2.85 ± 1.28 µM
same,IC50,N2 (H3N2) neuraminidase,4.41 ± 1.11 µM
"CCC(CC)O[C@@H]1C=C(C(=O)O)C[C@H](n2nncc2-c2ccccc2)[C@H]1NC(C)=O [Compound 2e, (3R,4R,5S)-4-Acetamido-3-(pentan-3-yloxy)-5-(5-phenyl-1H-1,2,3-triazol-1-yl)cyclohex-1-ene-1-carboxylic acid]",IC50,N5 (H12N5) neuraminidase,5.34 ± 0.45 µM
"CCC(CC)O[C@@H]1C=C(C(=O)O)C[C@H](n2nncc2-c2ccc(N(CC)CC)cc2)[C@H]1NC(C)=O [Compound 2m, (3R,4R,5S)-4-Acetamido-5-[5-(4-diethylaminophenyl)-1H-1,2,3-triazol-1-yl]-3-(pentan-3-yloxy)cyclohex-1-ene-1-carboxylic acid]",IC50,N5 (H12N5) neuraminidase,> 100 µM
"CCC(CC)O[C@@H]1C=C(C(=O)O)C[C@H](n2nncc2-c2ccccc2N)[C@H]1NC(C)=O [Compound 2k, (3R,4R,5S)-4-Acetamido-5-[5-(2-aminophenyl)-1H-1,2,3-triazol-1-yl]-3-(pentan-3-yloxy)cyclohex-1-ene-1-carboxylic acid]",IC50,N5 (H12N5) neuraminidase,0.41 ± 0.047 µM
"CCC(CC)O[C@@H]1C=C(C(=O)O)C[C@H](n2cc(-c3cccc(N)c3)nn2)[C@H]1NC(C)=O [Compound 1j, (3R,4R,5S)-4-Acetamido-5-[4-(3-aminophenyl)-1H-1,2,3-triazol-1-yl]-3-(pentan-3-yloxy)cyclohex-1-ene-1-carboxylic acid]",IC50,N5 (H12N5) neuraminidase,3.6 ± 0.82 µM
"CCC(CC)O[C@@H]1C=C(C(=O)O)C[C@H](n2cc(-c3ccc(N(C)C)cc3)nn2)[C@H]1NC(C)=O [Compound 1l, (3R,4R,5S)-4-Acetamido-5-[4-(4-dimethylaminophenyl)-1H-1,2,3-triazol-1-yl]-3-(pentan-3-yloxy)cyclohex-1-ene-1-carboxylic acid]",IC50,N5 (H12N5) neuraminidase,0.74 ± 0.18 µM
"CCC(CC)O[C@@H]1C=C(C(=O)O)C[C@H](n2cc(-c3ccccc3N)nn2)[C@H]1NC(C)=O [Compound 1k, (3R,4R,5S)-4-Acetamido-5-[4-(2-aminophenyl)-1H-1,2,3-triazol-1-yl]-3-(pentan-3-yloxy)cyclohex-1-ene-1-carboxylic acid]",IC50,N5 (H12N5) neuraminidase,0.52 ± 0.13 µM
"CCC(CC)O[C@@H]1C=C(C(=O)O)C[C@H](n2cc(-c3cccc(C(=O)O)c3)nn2)[C@H]1NC(C)=O [Compound 1g, (3R,4R,5S)-4-Acetamido-5-[4-(3-carboxyphenyl)-1H-1,2,3-triazol-1-yl]-3-(pentan-3-yloxy)cyclohex-1-ene-1-carboxylic acid]",IC50,N5 (H12N5) neuraminidase,29.5 ± 8 µM
"CCC(CC)O[C@@H]1C=C(C(=O)O)C[C@H](n2nncc2-c2cccc(C(=O)O)c2)[C@H]1NC(C)=O [Compound 2g, (3R,4R,5S)-4-Acetamido-5-[5-(3-carboxyphenyl)-1H-1,2,3-triazol-1-yl]-3-(pentan-3-yloxy)cyclohex-1-ene-1-carboxylic acid]",IC50,N5 (H12N5) neuraminidase,2.04 ± 0.99 µM
"CCC(CC)O[C@@H]1C=C(C(=O)O)C[C@H](n2nncc2-c2ccccc2C(=O)O)[C@H]1NC(C)=O [Compound 2h, (3R,4R,5S)-4-Acetamido-5-[5-(2-carboxyphenyl)-1H-1,2,3-triazol-1-yl]-3-(pentan-3-yloxy)cyclohex-1-ene-1-carboxylic acid]",IC50,N5 (H12N5) neuraminidase,0.57 ± 0.13 µM
"CCC(CC)O[C@@H]1C=C(C(=O)O)C[C@H](n2cc(-c3ccccc3)nn2)[C@H]1NC(C)=O [Compound 1e, (3R,4R,5S)-4-Acetamido-3-(pentan-3-yloxy)-5-(4-phenyl-1H-1,2,3-triazol-1-yl)cyclohex-1-ene-1-carboxylic acid]",IC50,N5 (H12N5) neuraminidase,12.9 ± 1.57 µM
"CCC(CC)O[C@@H]1C=C(C(=O)O)C[C@H](n2cc(-c3ccc(C(=O)O)cc3)nn2)[C@H]1NC(C)=O [Compound 1f, (3R,4R,5S)-4-Acetamido-5-[4-(4-carboxyphenyl)-1H-1,2,3-triazol-1-yl]-3-(pentan-3-yloxy)cyclohex-1-ene-1-carboxylic acid]",IC50,N5 (H12N5) neuraminidase,8.14 ± 1.12 µM
"CCC(CC)O[C@@H]1C=C(C(=O)O)C[C@H](N)[C@H]1NC(C)=O [OSC, oseltamivir carboxylate, reference compound]",CC50,in vitro,> 500 µM
same,IC50,N5 (H12N5) neuraminidase,0.00094 ± 0.0003 µM
same,EC50,[1],0.25 ± 0.081 µM
same,EC50,H3N2 (A/Moscow/10/99),0.43 ± 0.08 µM
"CCC(CC)O[C@@H]1C=C(C(=O)O)C[C@H](n2cc(-c3ccc(N)cc3)nn2)[C@H]1NC(C)=O [Compound 1i, (3R,4R,5S)-4-Acetamido-5-[4-(4-aminophenyl)-1H-1,2,3-triazol-1-yl]-3-(pentan-3-yloxy)cyclohex-1-ene-1-carboxylic acid]",IC50,N5 (H12N5) neuraminidase,> 100 µM
"CCC(CC)O[C@@H]1C=C(C(=O)O)C[C@H](n2cc(-c3ccc(-c4ccccc4)cc3)nn2)[C@H]1NC(C)=O [Compound 1a, (3R,4R,5S)-4-Acetamido-5-[4-(1,1′-biphenyl-4-yl)-1H-1,2,3-triazol-1-yl]-3-(pentan-3-yloxy)cyclohex-1-ene-1-carboxylic acid]",IC50,N5 (H12N5) neuraminidase,> 100 µM
same,IC50,N2 (H3N2) neuraminidase,> 100 µM
"CCC(CC)O[C@@H]1C=C(C(=O)O)C[C@H](n2cc(-c3ccccc3C(=O)O)nn2)[C@H]1NC(C)=O [Compound 1h, (3R,4R,5S)-4-Acetamido-5-[4-(2-carboxyphenyl)-1H-1,2,3-triazol-1-yl]-3-(pentan-3-yloxy)cyclohex-1-ene-1-carboxylic acid]",IC50,N5 (H12N5) neuraminidase,61.2 ± 23.7 µM
"CCC(CC)O[C@@H]1C=C(C(=O)O)C[C@H](n2nncc2-c2ccc(N)cc2)[C@H]1NC(C)=O [Compound 2i, (3R,4R,5S)-4-Acetamido-5-[5-(4-aminophenyl)-1H-1,2,3-triazol-1-yl]-3-(pentan-3-yloxy)cyclohex-1-ene-1-carboxylic acid]",IC50,N5 (H12N5) neuraminidase,0.25 ± 0.044 µM
"CCC(CC)O[C@@H]1C=C(C(=O)O)C[C@H](n2cc(-c3ccc(N(CC)CC)cc3)nn2)[C@H]1NC(C)=O [Compound 1m, (3R,4R,5S)-4-Acetamido-5-[4-(4-diethylaminophenyl)-1H-1,2,3-triazol-1-yl]-3-(pentan-3-yloxy)cyclohex-1-ene-1-carboxylic acid]",IC50,N5 (H12N5) neuraminidase,> 100 µM
"CCC(CC)O[C@@H]1C=C(C(=O)O)C[C@H](n2cc(-c3ccc(Oc4ccccc4)cc3)nn2)[C@H]1NC(C)=O [Compound 1b, (3R,4R,5S)-4-Acetamido-3-(pentan-3-yloxy)-5-[4-(4-phenoxyphenyl)-1H-1,2,3-triazol-1-yl]cyclohex-1-ene-1-carboxylic acid]",IC50,N5 (H12N5) neuraminidase,> 100 µM
same,IC50,N2 (H3N2) neuraminidase,> 100 µM
"CCC(CC)O[C@@H]1C=C(C(=O)O)C[C@H](n2nncc2COc2ccc(C[C@H](N)C(=O)O)cc2)[C@H]1NC(C)=O [Compound 2n, (3R,4R,5S)-4-Acetamido-5-{5-{[4-((S)-2-amino-2-carboxyethyl)phenoxy]methyl}-1H-1,2,3-triazol-1-yl}-3-(pentan-3-yloxy)cyclohex-1-ene-1-carboxylic acid]",IC50,N5 (H12N5) neuraminidase,2.43 ± 0.33 µM
"CCC(CC)O[C@@H]1C=C(C(=O)O)C[C@H](n2cc(COc3ccc4ccccc4c3)nn2)[C@H]1NC(C)=O [Compound 1c, (3R,4R,5S)-4-Acetamido-5-[4-(2-naphthyloxy)methyl-1H-1,2,3-triazol-1-yl]-3-(pentan-3-yloxy)cyclohex-1-ene-1-carboxylic acid]",IC50,N5 (H12N5) neuraminidase,1.66 ± 0.25 µM
same,IC50,N2 (H3N2) neuraminidase,3.8 ± 0.65 µM
"CCC(CC)O[C@@H]1C=C(C(=O)O)C[C@H](n2nncc2-c2ccc(N(C)C)cc2)[C@H]1NC(C)=O [Compound 2l, (3R,4R,5S)-4-Acetamido-5-[5-(4-dimethylaminophenyl)-1H-1,2,3-triazol-1-yl]-3-(pentan-3-yloxy)cyclohex-1-ene-1-carboxylic acid]",IC50,N5 (H12N5) neuraminidase,0.14 ± 0.016 µM
